Source: US5171838A, “Leu3a binding peptides” (Kureha Kagaku Kogyo Kabushiki Kaisha, priority 1990, dated 1992)
Entries after “also recorded” stand apart in the source; their conditions may differ. Where a SMILES comes first, the peptide text is derived from it. Where no end group is shown, it is not given here. [ ]: non-standard residue; d: D form.

Target: Leu3a binding to CD4
Test: Leu3a competitive immunoassay (inhibition of biotinylated Leu3a binding to immobilized CD4 membrane fraction)
Set-up: species or system human
Conditions: for IC50 μg/well: D-amino acid-substituted CD4 (49-63); for IC50 μg/well / IC50 /µg/well: peptide amount per well inhibiting Leu3a binding by 50%; for IC50 /µg/well: CD4 fragment peptides, membrane fraction of MOLT4 or CCRF-CEM cells as CD4 source, unit of the source corrected; for inhibition of Leu3a binding to CD4 (in words): CD4 from MOLT4 cells
Protocol: Then, aliquots of solutions containing labeled Leu3a and the peptide to be tested are added. […] After a suitable period of incubation, the solid matrix is washed to remove unbound components and the labeled Leu3a bound is quantitated. In general, any of a number of conventionally labeled Leu3a preparations may be used, including radioactively labeled or enzyme-labeled Leu3a. However, a biotinylated Leu3a used in conjunction with an appropriate secondary reagent such as a complex of avidin-biotin-horseradish peroxidase is preferred. This secondary reagent specifically binds to the biotinylated Leu3a. A chromogenic substrate is added to the complex, enabling one to measure the amount of Leu3a bound as a function of absorbance.
Two million cells, suspended in 2 ml of 40 mM HEPES (4-(2-hydroxyethyl)-1-piperazine ethanesulfonic acid) buffer (pH 7.4) containing 1 mM EGTA (ethylene-bis-(oxyethylene-nitrilo)-tetraacetic acid), 1 mM PMSF (phenylmethylsulfonylfluoride), 1,000 KIU/ml aprotinin and 150 mM sodium chloride, were lysed by two (2) successive 15 second cycles of ultrasonication and centrifuged at 100×g for five (5) minutes. The supernatant was collected and centrifuged at 15,000×g for ten minutes. The precipitate was resuspended in 1 ml of 50 mM sodium bicarbonate buffer, ultrasonicated by three (3) successive 15 second cycles, and mixed with 1 ml of 50 mM sodium bicarbonate buffer to obtain the cellular membrane suspension. Then, 50 μl of the membrane suspension was added to each well of a 96 well microtiter plate. After overnight incubation at 4° C., the buffer was removed and the adsorbed membrane fraction was fixed by addition of 50 μl of 10 mM PBS (phosphate buffered saline) containing 0.2% glutaraldehyde. After three (3) minutes at room temperature, the glutaraldehyde buffer was removed and the plates were washed five times with PBS. Then, 350 μl of PBS containing 2% bovine serum albumin (BSA) was added to each well to block subsequently added proteins from binding non-specifically to the plastic. After blocking at room temperature for one (1) hour, the blocking buffer was removed and the plates were washed five times with 0.2% BSA solution in PBS (BPBS).
The following dilutions of each peptide in BPBS--were prepared: 10 μg/ml; 20 μg/ml; 40 μg/ml; 100 μg/ml; 200 μg/ml, 400 μg/ml; 1 mg/ml and 2 mg/ml. A 50 μl aliquot of each dilution of a selected peptide was added to a well of a microtiter plate, together with 25 μl of a solution containing 600 ng/ml biotin-conjugated Leu3a (Becton Dickinson Immunocytometry Systems) in BPBS so that each well contained either 0.5, 1, 2, 5, 10, 20, 50 or 100 μg of peptide in a total volume of 75 μl. After overnight incubation at 4° C., the reaction mixture was removed and the plates were washed eight times with BPBS containing 0.05% Tween 20.
A solution containing a complex of avidin DH (reagent A) and biotinylated horseradish peroxidase H (reagent B) was prepared by adding 90 μl of reagent A and 90 μl of reagent B (ABC Kit:Vector Laboratories, Inc.) to 5 ml of BPBS containing 0.05% Tween 20.
Then, 50 μl of the enzyme complex solution was added to each well, and the plates were incubated at room temperature for four (4) hours. The reaction buffer was removed and the plates were washed eight times with 20 mM imidazole buffered saline containing 0.02% Tween 20. Equal volumes of substrate solution A (ABTS; 2,2'-azino-di[3-ethyl-benzthiazoline sulfonate]) and substrate solution B (hydrogen peroxide) (Hybri-Clonal™ EIA Screening Kit: Kirkegaard & Perry Laboratories, Inc.) were mixed, and 100 μl of the substrate solution mixture was added to each well. After incubation at room temperature for one (1) hour, absorbance at 405 nm was measured by microplate reader model MPR-A4 (Tosoh Co., Ltd.).
Leu3a binding, as measured by absorbance, was calculated and plotted against peptide concentration to obtain a competitive inhibition curve.

| Molecule | IC50 μg/well [μg/well] | IC50 /µg/well [µg/well] | inhibition of Leu3a binding to CD4 (in words) |
| --- | --- | --- | --- |
| SKLNDRADSRRSLWD [CD4 (49-63), ser-lys-leu-asn-asp-arg-ala-asp-ser-arg-arg-ser-leu-trp-asp] |  | 10 | strongly inhibited; also recorded: exceptionally strong inhibitory activity |
| CC(C)C[C@H](NC(=O)[C@H](CO)NC(=O)[C@H](CCCNC(=N)N)NC(=O)[C@H](CCCNC(=N)N)NC(=O)[C@H](CO)NC(=O)[C@H](CC(=O)O)NC(=O)[C@@H](C)NC(=O)[C@H](CCCNC(=N)N)NC(=O)[C@H](CC(=O)O)NC(=O)[C@H](CC(N)=O)NC(=O)[C@H](CC(C)C)NC(=O)[C@@H](CCCCN)NC(=O)[C@@H](N)CO)C(=O)N[C@@H](Cc1c[nH]c2ccccc12)C(=O)N[C@@H](CC(=O)O)C(=O)O [[D-Lys^50,D-Ala^55]-CD4(49-63)] (H-S[dK]LNDR[dA]DSRRSLWD-OH) | 36 |  |  |
| CC(C)C[C@H](NC(=O)[C@H](CO)NC(=O)[C@H](CCCNC(=N)N)NC(=O)[C@H](CCCNC(=N)N)NC(=O)[C@H](CO)NC(=O)[C@H](CC(=O)O)NC(=O)[C@@H](C)NC(=O)[C@H](CCCNC(=N)N)NC(=O)[C@H](CC(=O)O)NC(=O)[C@@H](CC(N)=O)NC(=O)[C@H](CC(C)C)NC(=O)[C@H](CCCCN)NC(=O)[C@@H](N)CO)C(=O)N[C@@H](Cc1c[nH]c2ccccc12)C(=O)N[C@@H](CC(=O)O)C(=O)O [[D-Asn^52,D-Ala^55]-CD4(49-63)] (H-SKL[dN]DR[dA]DSRRSLWD-OH) | 60 |  |  |
| CC(C)C[C@H](NC(=O)[C@H](CCCCN)NC(=O)[C@@H](N)CO)C(=O)N[C@@H](CC(N)=O)C(=O)N[C@@H](CC(=O)O)C(=O)N[C@@H](CCCNC(=N)N)C(=O)N[C@H](C)C(=O)N[C@@H](CC(=O)O)C(=O)N[C@@H](CO)C(=O)N[C@@H](CCCNC(=N)N)C(=O)N[C@H](CCCNC(=N)N)C(=O)N[C@@H](CO)C(=O)N[C@@H](CC(C)C)C(=O)N[C@@H](Cc1c[nH]c2ccccc12)C(=O)N[C@@H](CC(=O)O)C(=O)O [[D-Ala^55,D-Arg^59]-CD4(49-63)] (H-SKLNDR[dA]DSR[dR]SLWD-OH) | 23 |  |  |
| KLNDRADSRRSLWD [CD4 (50-63)] |  | > 500 | very weak inhibiting activity |

Further lines, results first:

| IC50 μg/well [μg/well] | IC50 /µg/well [µg/well] | inhibition of Leu3a binding to CD4 (in words) | Molecule |
| --- | --- | --- | --- |
| 22 |  |  | CC(C)C[C@H](NC(=O)[C@@H](CCCCN)NC(=O)[C@@H](N)CO)C(=O)N[C@@H](CC(N)=O)C(=O)N[C@@H](CC(=O)O)C(=O)N[C@@H](CCCNC(=N)N)C(=O)N[C@H](C)C(=O)N[C@@H](CC(=O)O)C(=O)N[C@@H](CO)C(=O)N[C@@H](CCCNC(=N)N)C(=O)N[C@@H](CCCNC(=N)N)C(=O)N[C@@H](CO)C(=O)N[C@H](CC(C)C)C(=O)N[C@@H](Cc1c[nH]c2ccccc12)C(=O)N[C@@H](CC(=O)O)C(=O)O [[D-Lys^50,D-Ala^55,D-Leu^61]-CD4(49-63)] (H-S[dK]LNDR[dA]DSRRS[dL]WD-OH) |
| 10 |  |  | CC(C)C[C@H](NC(=O)[C@H](CO)NC(=O)[C@H](CCCNC(=N)N)NC(=O)[C@H](CCCNC(=N)N)NC(=O)[C@@H](CO)NC(=O)[C@H](CC(=O)O)NC(=O)[C@@H](C)NC(=O)[C@H](CCCNC(=N)N)NC(=O)[C@H](CC(=O)O)NC(=O)[C@H](CC(N)=O)NC(=O)[C@H](CC(C)C)NC(=O)[C@H](CCCCN)NC(=O)[C@@H](N)CO)C(=O)N[C@@H](Cc1c[nH]c2ccccc12)C(=O)N[C@@H](CC(=O)O)C(=O)O [[D-Ala^55,D-Ser^57]-CD4(49-63)] (H-SKLNDR[dA]D[dS]RRSLWD-OH) |
|  | > 500 | very weak inhibiting activity | SKLNDRADSRRSLW [CD4 (49-62)] |
|  | 500 |  | KNSNQIKILGNQGSFLTKG [CD4 (29-47)] |
| 56 |  |  | CC(C)C[C@H](NC(=O)[C@H](CO)NC(=O)[C@H](CCCNC(=N)N)NC(=O)[C@H](CCCNC(=N)N)NC(=O)[C@H](CO)NC(=O)[C@@H](CC(=O)O)NC(=O)[C@H](C)NC(=O)[C@H](CCCNC(=N)N)NC(=O)[C@H](CC(=O)O)NC(=O)[C@H](CC(N)=O)NC(=O)[C@H](CC(C)C)NC(=O)[C@H](CCCCN)NC(=O)[C@@H](N)CO)C(=O)N[C@@H](Cc1c[nH]c2ccccc12)C(=O)N[C@@H](CC(=O)O)C(=O)O [[D-Asp^56]-CD4(49-63)] (H-SKLNDRA[dD]SRRSLWD-OH) |
| 32 |  |  | CC(C)C[C@H](NC(=O)[C@H](CO)NC(=O)[C@H](CCCNC(=N)N)NC(=O)[C@H](CCCNC(=N)N)NC(=O)[C@H](CO)NC(=O)[C@H](CC(=O)O)NC(=O)[C@@H](C)NC(=O)[C@H](CCCNC(=N)N)NC(=O)[C@H](CC(=O)O)NC(=O)[C@H](CC(N)=O)NC(=O)[C@H](CC(C)C)NC(=O)[C@H](CCCCN)NC(=O)[C@@H](N)CO)C(=O)N[C@@H](Cc1c[nH]c2ccccc12)C(=O)N[C@@H](CC(=O)O)C(=O)O [[D-Ala^55]-CD4(49-63)] (H-SKLNDR[dA]DSRRSLWD-OH) |
| 36 |  |  | CC(C)C[C@H](NC(=O)[C@H](CO)NC(=O)[C@H](CCCNC(=N)N)NC(=O)[C@@H](CCCNC(=N)N)NC(=O)[C@H](CO)NC(=O)[C@H](CC(=O)O)NC(=O)[C@@H](C)NC(=O)[C@H](CCCNC(=N)N)NC(=O)[C@H](CC(=O)O)NC(=O)[C@H](CC(N)=O)NC(=O)[C@H](CC(C)C)NC(=O)[C@H](CCCCN)NC(=O)[C@@H](N)CO)C(=O)N[C@@H](Cc1c[nH]c2ccccc12)C(=O)N[C@@H](CC(=O)O)C(=O)O [[D-Ala^55,D-Arg^58]-CD4(49-63)] (H-SKLNDR[dA]DS[dR]RSLWD-OH) |
| 25 |  | exhibited inhibitory activity | CC(C)C[C@H](NC(=O)[C@H](CO)NC(=O)[C@@H](CCCNC(=N)N)NC(=O)[C@H](CCCNC(=N)N)NC(=O)[C@H](CO)NC(=O)[C@H](CC(=O)O)NC(=O)[C@@H](C)NC(=O)[C@H](CCCNC(=N)N)NC(=O)[C@H](CC(=O)O)NC(=O)[C@H](CC(N)=O)NC(=O)[C@H](CC(C)C)NC(=O)[C@@H](CCCCN)NC(=O)[C@@H](N)CO)C(=O)N[C@@H](Cc1c[nH]c2ccccc12)C(=O)N[C@@H](CC(=O)O)C(=O)O [[D-Lys^50,D-Ala^55,D-Arg^59]-CD4(49-63)] (H-S[dK]LNDR[dA]DSR[dR]SLWD-OH) |
